Results as given in US6103766A, “Phenylsulfonamide-phenylethylamines useful as dopamine receptors” (Pharmacia & Upjohn Company, priority 1999, dated 2000).
Several values for one entry are separate records, joined by “and”; a condition that tells them apart may be missing. Identical values can stand only once. Like-named read-outs stand apart in the source and are kept apart here.

What was measured:
[1] = target: T1, dopamine D3 receptor (Rattus norvegicus, UniProt P19020); experiment: Competition binding at cloned rat dopamine D3 receptor (D3-DOP-CLONE) with [3H]-spiperone; settings: cloned rat receptor in CHO-K1 cells, [3H]-spiperone (107 Ci/mmol, 0.5 nM), eleven dilutions
T1 construct: expressed in transfected cells; host or cells: CHO-K1
T1 sequence (P19020 whole entry): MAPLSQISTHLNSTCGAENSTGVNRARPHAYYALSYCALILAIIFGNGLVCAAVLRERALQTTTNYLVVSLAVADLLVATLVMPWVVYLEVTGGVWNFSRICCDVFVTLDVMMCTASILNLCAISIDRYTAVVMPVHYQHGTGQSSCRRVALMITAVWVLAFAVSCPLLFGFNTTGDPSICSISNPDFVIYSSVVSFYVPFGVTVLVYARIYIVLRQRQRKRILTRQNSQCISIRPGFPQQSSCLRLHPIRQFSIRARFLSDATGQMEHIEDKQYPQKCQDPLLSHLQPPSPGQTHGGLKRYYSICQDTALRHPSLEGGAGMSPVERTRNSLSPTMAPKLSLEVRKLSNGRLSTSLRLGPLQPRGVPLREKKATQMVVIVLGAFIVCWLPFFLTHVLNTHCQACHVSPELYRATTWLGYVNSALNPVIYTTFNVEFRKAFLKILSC
Protocol: (§1) Competition binding experiments employed eleven dilutions of test compounds of Formula I competing with [^3 H]-5-(dipropylamino)-5,6-dihydro-4H-imidazo(4,5,1-ij)quinolin-2(1H)-one (R-enantiomer) ("86170") (62 Ci/mmol, 2nM) and [^3 H]-spiperone ("SPI") (107 Ci/mmol, 0.5 nM) for D2 and D3 binding sites, respectively. (Lahti, R. A., Eur. J. Pharmacol., 202, 289 (1991)) In each experiment, cloned rat receptors expressed in CHO-K1 cells were used. (Chio, C. L., Nature, 343, 266 (1990); and Huff, R. M., Mol. Pharmacol. 45, 51-60 (1993)).

[2] = target: T2, dopamine D2 receptor (Rattus norvegicus, UniProt P61169); experiment: Competition binding at cloned rat dopamine D2 receptor (D2-DOP-CLONE) with [3H]-86170; settings: cloned rat receptor in CHO-K1 cells, [3H]-86170 (62 Ci/mmol, 2 nM), eleven dilutions, read-out: Ki (Receptor binding, IC50 values)
T2 construct: expressed in transfected cells; host or cells: CHO-K1
T2 sequence (P61169 whole entry): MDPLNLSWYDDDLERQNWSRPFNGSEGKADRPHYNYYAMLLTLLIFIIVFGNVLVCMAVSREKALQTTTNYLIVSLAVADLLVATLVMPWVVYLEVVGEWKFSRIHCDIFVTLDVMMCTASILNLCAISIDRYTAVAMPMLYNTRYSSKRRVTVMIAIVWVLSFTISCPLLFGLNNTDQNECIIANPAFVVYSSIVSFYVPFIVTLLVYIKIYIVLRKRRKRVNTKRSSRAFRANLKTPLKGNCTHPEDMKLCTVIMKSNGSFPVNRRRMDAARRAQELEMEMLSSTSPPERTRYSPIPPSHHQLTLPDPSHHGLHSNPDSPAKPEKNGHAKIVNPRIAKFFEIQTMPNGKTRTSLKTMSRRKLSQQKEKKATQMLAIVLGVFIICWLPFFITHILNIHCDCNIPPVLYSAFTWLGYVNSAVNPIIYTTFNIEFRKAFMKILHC
Protocol: as §1

[3] = Ki (Receptor binding, IC50 values)
[4] = read-out: Ki (Receptor binding, IC50 values)

| Structure (SMILES) | Ki [1, 3] | Ki [2] | Ki [1, 4] |
| --- | --- | --- | --- |
| CCCNCCc1ccc(NS(=O)(=O)c2ccc(Cl)cc2)cc1 [Example 4, 2-[4-(4-chlorobenzenesulfonamido)phenyl]ethyl-1-propylamine] | 0.018 µM | 0.677 µM | – |
| CCCNCCc1ccc(NS(=O)(=O)c2ccc(C(F)(F)F)cc2)cc1 [Example 8, 2-[4-[(4-trifluoromethyl)benzenesulfonamido]phenyl]ethyl-1-propylamine] | – | 1.53 µM | 0.033 µM |
| CCCNCCc1ccc(NS(=O)(=O)c2ccc(Cl)cc2Cl)cc1 [Example 3, 2-[4-(2,4-dichlorobenzenesulfonamido)phenyl]ethyl-1-propylamine] | – | 0.76 µM | 0.014 µM and 0.026 µM |
| CCCNCCc1cccc(NS(=O)(=O)c2cccc(Cl)c2)c1 [Example 10, 2-[3-(3-chlorobenzenesulfonamido)phenyl]ethyl-1-propylamine] | – | 1.07 µM | 0.111 µM |
| CCCNCCc1ccc(NS(=O)(=O)c2ccc(F)cc2Cl)cc1 [Example 6, 2-[4-(2-chloro-4-fluorobenzenesulfonamido)phenyl]ethyl-1-propylamine] | – | 2.18 µM | 0.165 µM |
| CCCNCCc1ccc(NS(=O)(=O)c2ccc(Br)cc2)cc1 [Example 7, 2-[4-(4-bromobenzenesulfonamido)phenyl]ethyl-propylamine] | 0.014 µM | 0.623 µM | – |
| CCCNCCc1ccc(NS(=O)(=O)c2ccc(OC(F)(F)F)cc2)cc1 [Example 5, 2-[4-(4-trifluoromethoxybenzenesulfonamido)phenyl]ethyl-1-propylamine] | – | 2.39 µM | 0.028 µM |
| CCCN(CCC)CCc1ccc(NS(=O)(=O)c2ccc(Cl)cc2)cc1 [Example 1, 2-[4-(4-chlorobenzenesulfonamido)phenyl]ethyl-1-dipropylamine] | 0.0037 µM | 0.629 µM | – |
| CCCNCCc1cccc(NS(=O)(=O)c2ccccc2F)c1 [Example 9, 2-[3-(2-fluorobenzenesulfonamido)phenyl]ethyl-1-propylamine] | 0.054 µM | 0.645 µM | – |
| CCCN(CCC)CCc1ccc(NS(=O)(=O)c2ccc(NC(C)=O)cc2)cc1 [Example 2, 2-[4-(4-acetamidobenzenesulfonamido)phenyl]ethyl-1-dipropylamine] | – | 1.07 µM | 0.034 µM |
